# PubChem BioAssay AID2060330 (Molecular Pharmacology Branch, DTP, NCI, 2025)
# Test system: LG0703-F948-PDC spheroids with HUVEC/MSC, viability
# Assay: Anticancer human tumor LG0703-F948-PDC patient-derived lung adenocarcinoma cell line growth inhibition [IpAb]
# Conditions: for IC50: curve of first compound; for viability, T/C: stronger effect = lower value
# Excerpt: Combinatorial screen of targeted agents with ipatasertib and abemaciclib in multi-cell type tumor spheroids
# A high-throughput screen of multi-cell type tumor spheroids was designed to identify active combinations of targeted small molecules and ipatasertib or abemaciclib. Complex spheroids include a stromal component modeled by human endothelial cells (HUVEC) and fibroblasts modeled by human mesenchymal stem cells (MSCs). The concentration ranges selected for each drug and investigational agent were based upon clinically achievable concentrations if the clinical Cmax of the agent was known.
# Compounds. The drugs and investigational agents: ipatasertib (NSC767898), abemaciclib(NSC768073), selumetinib (NSC741078), trametinib (758246), adavosertib (NSC754352), everolimus (NSC733504), sapanisertib (NSC764658), vemurafenib (NSC761431), venetoclax (NSC766270), copanlisib (NSC809693), apelisib (NSC765974), palbociblib (NSC758247), vemurafenib (NSC761431), dabrafenib (NSC764134), ravoxertinib (NSC781343), BMS-387032 (NSC767048), sotorasib (NSC818433), talazoparib (NSC767125) and afursertib (NSC778305), were obtained from the National Cancer Institute (NCI) Developmental Therapeutics Program Chemical Repository. The FDA-approved anticancer drug set is available from the NCI Developmental Therapeutics Program. […] The stock solutions were prepared in dimethyl sulfoxide (DMSO, Sigma-Aldrich, St. Louis, MO, cat. D2650) at 800-fold the tested concentration and stored at -70 degrees C prior to their use. All drugs and investigational agents were tested over a range starting from a high concentration at or near the clinical Cmax and decreasing in half-log increments. If the clinical Cmax for an agent had not been determined, the highest concentration tested was 10 microM.
# NCI60 Cell Culture. NCI60 cell lines were obtained from the NCI Developmental Therapeutics Program Tumor Repository. For each lot of cells, the Repository performed Applied Biosystems AmpFLSTR Identifiler testing with PCR amplification to confirm consistency with the published Identifier STR profile for each cell line. Cells were kept in continuous culture for no more than 20 passages. The optimal seeding densities for each of the cell lines at each time point assessed were determined prior to performing the concentration response studies. Briefly, the NCI60 human tumor lines were grown as monolayers in RPMI 1640 medium supplemented with 10% FBS and 2 mmol/L L-glutamine.
# An additional 9 lines were from the NCI60 cell line panel including MDA-MB-231 breast carcinoma, MDA-MB-468 breast carcinoma, MCF7 breast carcinoma, Hs578T breast carcinoma, MALME-3M melanoma, SK-MEL-2 melanoma, SK-OV-3 ovarian carcinoma, DU-145 prostate carcinoma, PC-3 prostate carcinoma, all cell lines along with major genetic alterations are listed on Table 2. Pooled donor human umbilical vein endothelial cells (HUVEC, Lonza, cat. CC-2519) and human mesenchymal stem cells (hMSC, Lonza, cat. PT-2501) were purchased from Lonza (Walkersville, MD).
# PDMR cell lines were grown in complete medium (DC medium): Dulbecco's modified Eagle's medium (DMEM)/F12 supplemented with 5% fetal bovine serum (FBS), 2 mM L-glutamine, 100 U/mL penicillin and 100 µg/ml streptomycin, 0.4 µg/ml hydrocortisone, 10 ng/ml epidermal growth factor (EGF) recombinant human protein, 24 µg/mL adenine, and 0.1 mg/mL primocin. During culture from frozen stock vials, PDMR cells were cultured in the same medium containing 10 µM Y-27632 (see Table 3). The PDCs were cultured in complete DMEM/F12 media without 10 microM Y-27632 dihydrochloride for at least two passages prior to the screen. The pooled donor HUVEC and hMSC were cultured in endothelial cell growth medium 2 (PromoCell, Heidelberg, Germany, cat. C-22011) and mesenchymal stem cell growth medium 2 (PromoCell, cat. C-28009), respectively. For all experiments, HUVEC and hMSC were used at passages </=5.
# […]
# 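Further: spheroids exposed to compounds for seven days before readout.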
# 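Wherever viability, T/C is given: T/C percent relative to DMSO vehicle wells set as 100% viability.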
smiles,measurement,setting,value
C=CCn1c(=O)c2cnc(Nc3ccc(N4CCN(C)CC4)cc3)nc2n1-c1cccc(C(C)(C)O)n1 + CC(C)NCC(C(=O)N1CCN(c2ncnc3c2C(C)CC3O)CC1)c1ccc(Cl)cc1,IC50,second compound 0.1 µM,0.704 µM
same,IC50,second compound 0.316 µM,0.243 µM
same,IC50,second compound 1 µM,< 0.0316 µM
same,IC50,second compound 3.16 µM,< 0.0316 µM
same,IC50,second compound 10 µM,< 0.0316 µM
same,"viability, T/C","second compound 0.1 µM, first compound 0.0316 µM",97.8%
same,"viability, T/C","second compound 0.1 µM, first compound 0.1 µM",94.6%
same,"viability, T/C","second compound 0.1 µM, first compound 0.316 µM",72.4%
same,"viability, T/C","second compound 0.1 µM, first compound 1 µM",40.5%
same,"viability, T/C","second compound 0.1 µM, first compound 3.16 µM",13.2%
same,"viability, T/C","second compound 0.1 µM, first compound 10 µM",4.37%
same,"viability, T/C","second compound 0.316 µM, first compound 0.0316 µM",75.6%
same,"viability, T/C","second compound 0.316 µM, first compound 0.1 µM",66.5%
same,"viability, T/C","second compound 0.316 µM, first compound 0.316 µM",45.6%
same,"viability, T/C","second compound 0.316 µM, first compound 1 µM",17.1%
same,"viability, T/C","second compound 0.316 µM, first compound 3.16 µM",5.97%
same,"viability, T/C","second compound 0.316 µM, first compound 10 µM",2.34%
same,"viability, T/C","second compound 1 µM, first compound 0.0316 µM",44.7%
same,"viability, T/C","second compound 1 µM, first compound 0.1 µM",36.7%
same,"viability, T/C","second compound 1 µM, first compound 0.316 µM",37.1%
same,"viability, T/C","second compound 1 µM, first compound 1 µM",16.5%
same,"viability, T/C","second compound 1 µM, first compound 3.16 µM",7.72%
same,"viability, T/C","second compound 1 µM, first compound 10 µM",2.58%
same,"viability, T/C","second compound 3.16 µM, first compound 0.0316 µM",39.3%
same,"viability, T/C","second compound 3.16 µM, first compound 0.1 µM",39.6%
same,"viability, T/C","second compound 3.16 µM, first compound 0.316 µM",28.3%
same,"viability, T/C","second compound 3.16 µM, first compound 1 µM",13.2%
same,"viability, T/C","second compound 3.16 µM, first compound 3.16 µM",6.52%
same,"viability, T/C","second compound 3.16 µM, first compound 10 µM",3.11%
same,"viability, T/C","second compound 10 µM, first compound 0.0316 µM",28.6%
same,"viability, T/C","second compound 10 µM, first compound 0.1 µM",24.1%
same,"viability, T/C","second compound 10 µM, first compound 0.316 µM",15.9%
same,"viability, T/C","second compound 10 µM, first compound 1 µM",5.77%
same,"viability, T/C","second compound 10 µM, first compound 3.16 µM",5.31%
same,"viability, T/C","second compound 10 µM, first compound 10 µM",6.51%
Cn1cnc2c(F)c(Nc3ccc(Br)cc3Cl)c(C(=O)NOCCO)cc21 + CC(C)NCC(C(=O)N1CCN(c2ncnc3c2C(C)CC3O)CC1)c1ccc(Cl)cc1,IC50,second compound 0.1 µM,0.0124 µM
same,IC50,second compound 0.316 µM,< 0.00949 µM
same,IC50,second compound 1 µM,< 0.00949 µM
same,IC50,second compound 3.16 µM,< 0.00949 µM
same,IC50,second compound 10 µM,< 0.00949 µM
same,"viability, T/C","second compound 0.1 µM, first compound 0.00949 µM",55%
same,"viability, T/C","second compound 0.1 µM, first compound 0.03 µM",35.1%
same,"viability, T/C","second compound 0.1 µM, first compound 0.0949 µM",27.4%
same,"viability, T/C","second compound 0.1 µM, first compound 0.3 µM",20.1%
same,"viability, T/C","second compound 0.1 µM, first compound 0.949 µM",18.3%
same,"viability, T/C","second compound 0.1 µM, first compound 3 µM",14%
same,"viability, T/C","second compound 0.316 µM, first compound 0.00949 µM",36.3%
same,"viability, T/C","second compound 0.316 µM, first compound 0.03 µM",19.5%
same,"viability, T/C","second compound 0.316 µM, first compound 0.0949 µM",14.1%
same,"viability, T/C","second compound 0.316 µM, first compound 0.3 µM",7.81%
same,"viability, T/C","second compound 0.316 µM, first compound 0.949 µM",7.98%
same,"viability, T/C","second compound 0.316 µM, first compound 3 µM",3.28%
same,"viability, T/C","second compound 1 µM, first compound 0.00949 µM",21.6%
same,"viability, T/C","second compound 1 µM, first compound 0.03 µM",12.9%
same,"viability, T/C","second compound 1 µM, first compound 0.0949 µM",5.36%
same,"viability, T/C","second compound 1 µM, first compound 0.3 µM",3.84%
same,"viability, T/C","second compound 1 µM, first compound 0.949 µM",2.91%
same,"viability, T/C","second compound 1 µM, first compound 3 µM",1.32%
same,"viability, T/C","second compound 3.16 µM, first compound 0.00949 µM",13.7%
same,"viability, T/C","second compound 3.16 µM, first compound 0.03 µM",6.24%
same,"viability, T/C","second compound 3.16 µM, first compound 0.0949 µM",3.66%
same,"viability, T/C","second compound 3.16 µM, first compound 0.3 µM",3.22%
same,"viability, T/C","second compound 3.16 µM, first compound 0.949 µM",2.57%
same,"viability, T/C","second compound 3.16 µM, first compound 3 µM",3.42%
same,"viability, T/C","second compound 10 µM, first compound 0.00949 µM",7.41%
same,"viability, T/C","second compound 10 µM, first compound 0.03 µM",4.11%
same,"viability, T/C","second compound 10 µM, first compound 0.0949 µM",1.36%
same,"viability, T/C","second compound 10 µM, first compound 0.3 µM",2.06%
same,"viability, T/C","second compound 10 µM, first compound 0.949 µM",1%
same,"viability, T/C","second compound 10 µM, first compound 3 µM",0.28%
